Laboratory results as given in patent US20240336563A1, “G-ALPHA-S INHIBITORS AND USES THEREOF” (The Regents of the University of California, priority 2021, published 2024).
“Also recorded” adds a separate entry of the source.

Columns and labels:
[1] = molecular target: T1, Gαs(R201C/C237S) (Homo sapiens, UniProt P63092, C237S/R201C); assay: Cysteine modification by acrylamidine; format: binding; conditions: R201C/C237S double mutant
Source text: (§1) The R201C mutation results in the loss of ammonium η1 and η2 of R201 thus freeing E50 to interact with R258 and R265 to indirectly stabilize switch II in an active-like conformation. Based on this finding, replacing the side chain of R201C with a close mimic of native arginine which contains N(η1) and N(η2) may correct the misactivation of the R201C mutant. […] This modification converts cysteine to an arginine mimic (FIG. 3A).

[2] = molecular target: Gαs(R201C) (Homo sapiens, UniProt P63092, R201C); assay: Cysteine modification by acrylamidine; format: binding; conditions: R201C mutant
Source text: as §1

[3] = molecular target: GDP-bound Gαs(R201C/C237S) (Homo sapiens, UniProt P63092, C237S/R201C); assay: Adenylyl cyclase-activating activity of Acr-modified Gαs; format: biochemical; conditions: in the presence of GDP and Gβ1/Gγ2(C68S), free Acr removed by gel filtration
Protocol: (§2) FIGS. 3A-3C show modification of C201 by acrylamide. […] The data represents the mean SE of three independent measurements. […] The data represents the mean±SD of at least three independent measurements.
(§3) Also effect of modifying C201 with Acr on the adenylyl cyclase-activating activity of GDP-bound Gαs(R201C/C237S) was calculated. […] The kcat of Gαs(C237S) is 1.539±0.153 min^−1 (measured at 0° C.), slightly higher than that of WT Gαs (FIG. 3C). […] Following Acr modification of the R201C/C237S mutant its kcat increased to 0.471±0.043 min^−1 (measured at 0° C.), about 30% of that of Gαs(C237S).

[4] = molecular target: T1, Gαs(R201C/C237S); assay: Single turnover GTPase activity of Acr-modified Gαs; format: biochemical
Protocol: as §2, §3

T1 sequence (P63092 7-380 isoform P63092-2 R187C/C223S limits assumed): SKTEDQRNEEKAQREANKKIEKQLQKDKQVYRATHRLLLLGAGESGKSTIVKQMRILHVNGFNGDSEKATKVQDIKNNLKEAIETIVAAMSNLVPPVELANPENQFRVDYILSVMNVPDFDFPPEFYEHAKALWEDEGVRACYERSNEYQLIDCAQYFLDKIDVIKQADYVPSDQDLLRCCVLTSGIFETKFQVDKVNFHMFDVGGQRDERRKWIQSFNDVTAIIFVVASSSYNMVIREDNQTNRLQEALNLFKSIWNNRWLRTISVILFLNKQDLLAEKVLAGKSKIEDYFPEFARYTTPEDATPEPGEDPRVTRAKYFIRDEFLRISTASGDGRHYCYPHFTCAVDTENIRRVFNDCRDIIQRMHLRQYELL
Chain of GDP-bound Gαs(R201C/C237S) (P63092 7-380 isoform P63092-2 R187C/C223S limits assumed): as above
Chain of Gαs(R201C) (P63092 7-380 isoform P63092-2 R187C limits assumed): as the sequence (P63092 7-380 isoform P63092-2 R187C/C223S limits assumed) above, with S217C counted along it

With `C=CC(=N)N` [Acr, acrylamidine] the “cysteines modified by Acr” value [1] was “only Cys201 can be modified”, the “cysteines modified by Acr” value [2] was “can modify Cys237 and Cys201” and the “ability of Acr-modified Gαs(R201C/C237S) to activate adenylyl cyclase” value [3] was “lowered to the same level as that of Gαs(C237S); also recorded: decreased”. The “single turnover GTPase activity of the R201C/C237S mutant after modification of C201 by Acr” value ([4]; FIG. 3C legend) was “increased the single turnover GTPase activity of the R201C/C237S mutant to a level close to that of the C237S mutant”, the “kcat after Acr modification relative to that of Gαs(C237S)” value ([4]; measured at 0° C.) was “about 30%” and the “kcat of R201C/C237S mutant following Acr modification” value ([4]; measured at 0° C.) was 0.471 ± 0.043 min⁻¹.
